Assay results: the NIST ThermoML archive (doi:10.1016/j.tca.2007.03.018)
Several values for one entry are separate records, joined by “and”; a condition that tells them apart may be missing. Identical values can stand only once.

Assay: molar heat capacity at saturation pressure
Details: Crystal 3, Small (less than 1 g) adiabatic calorimetry

C1C2CC3CC1CC(C14CC5CC(CC(C5)C1)C4)(C2)C3 [1,1'-biadamantane]
Details	molar heat capacity
5.12 K	0.3991 J/K/mol
5.48 K	0.4822 J/K/mol
5.83 K	0.5877 J/K/mol
6.16 K	0.685 J/K/mol
6.52 K	0.8082 J/K/mol
6.89 K	0.9715 J/K/mol
7.26 K	1.141 J/K/mol
7.65 K	1.358 J/K/mol
8.06 K	1.589 J/K/mol
8.49 K	1.895 J/K/mol
8.96 K	2.209 J/K/mol
9.44 K	2.572 J/K/mol
9.95 K	2.983 J/K/mol
10.48 K	3.464 J/K/mol
11.04 K	3.988 J/K/mol
11.61 K	4.561 J/K/mol
12.2 K	5.242 J/K/mol
12.83 K	5.943 J/K/mol
13.49 K	6.781 J/K/mol
14.18 K	7.626 J/K/mol
14.87 K	8.538 J/K/mol
15.63 K	9.556 J/K/mol
16.43 K	10.67 J/K/mol
17.24 K	11.86 J/K/mol
18.08 K	13.09 J/K/mol
18.95 K	14.44 J/K/mol
19.88 K	15.84 J/K/mol
20.83 K	17.31 J/K/mol
21.82 K	18.74 J/K/mol
22.89 K	20.35 J/K/mol
22.95 K	20.46 J/K/mol
24.01 K	21.99 J/K/mol
24.06 K	22.16 J/K/mol
25.22 K	23.79 J/K/mol
26.48 K	25.74 J/K/mol
27.75 K	27.57 J/K/mol
29.1 K	29.32 J/K/mol
30.54 K	31.4 J/K/mol
31.99 K	33.13 J/K/mol
33.46 K	34.98 J/K/mol
34.99 K	36.71 J/K/mol
36.59 K	38.54 J/K/mol
38.25 K	40.44 J/K/mol
40.03 K	42.38 J/K/mol
41.9 K	44.38 J/K/mol
43.85 K	46.11 J/K/mol
45.82 K	48.13 J/K/mol
47.8 K	49.99 J/K/mol
49.9 K	51.98 J/K/mol
52.16 K	54.02 J/K/mol
56.79 K	58.28 J/K/mol
59.06 K	60 J/K/mol
61.48 K	62.21 J/K/mol
64.1 K	64.5 J/K/mol
66.87 K	66.86 J/K/mol
69.6 K	69.08 J/K/mol
72.27 K	71.72 J/K/mol
74.94 K	73.93 J/K/mol
77.75 K	76.41 J/K/mol
78.69 K	77.62 J/K/mol
80.6 K	79.18 J/K/mol
81.1 K	79.65 J/K/mol
83.35 K	81.61 J/K/mol
83.41 K	81.57 J/K/mol
85.61 K	83.56 J/K/mol
86.26 K	84.36 J/K/mol
87.88 K	85.72 J/K/mol
89.1 K	86.73 J/K/mol
90.15 K	87.8 J/K/mol
91.92 K	89.55 J/K/mol
92.41 K	89.88 J/K/mol
94.69 K	91.96 J/K/mol
96.97 K	94.12 J/K/mol
99.26 K	96.28 J/K/mol
101.55 K	98.53 J/K/mol
103.84 K	100.69 J/K/mol
106.12 K	102.85 J/K/mol
108.41 K	105.09 J/K/mol
110.71 K	107.17 J/K/mol
113 K	109.58 J/K/mol
115.31 K	111.83 J/K/mol
117.61 K	113.99 J/K/mol
119.9 K	116.15 J/K/mol
122.2 K	118.56 J/K/mol
124.49 K	120.81 J/K/mol
126.77 K	123.05 J/K/mol
129.06 K	125.38 J/K/mol
130.26 K	126.5 J/K/mol
131.34 K	127.63 J/K/mol
132.68 K	129 J/K/mol
134.96 K	131.3 J/K/mol
137.24 K	133.6 J/K/mol
139.51 K	135.9 J/K/mol
141.78 K	138.2 J/K/mol
144.05 K	140.5 J/K/mol
146.32 K	142.9 J/K/mol
148.59 K	145.3 J/K/mol
150.84 K	147.7 J/K/mol
153.1 K	150.1 J/K/mol
155.35 K	152.4 J/K/mol
157.59 K	154.7 J/K/mol
159.84 K	157.1 J/K/mol
162.08 K	159.6 J/K/mol
164.32 K	161.9 J/K/mol
166.57 K	164.4 J/K/mol
168.8 K	166.9 J/K/mol
171.03 K	169.3 J/K/mol
173.25 K	171.7 J/K/mol
175.46 K	174.2 J/K/mol
177.68 K	176.7 J/K/mol
179.89 K	179.2 J/K/mol
182.09 K	181.7 J/K/mol
184.28 K	184.2 J/K/mol
186.47 K	186.7 J/K/mol
188.65 K	189.2 J/K/mol
190.83 K	191.6 J/K/mol
193 K	194.2 J/K/mol
195.17 K	196.7 J/K/mol
197.33 K	199.3 J/K/mol
199.49 K	201.8 J/K/mol
201.65 K	204.5 J/K/mol
203.8 K	207.1 J/K/mol
205.94 K	209.8 J/K/mol
208.08 K	212.4 J/K/mol
210.21 K	215 J/K/mol
212.34 K	217.7 J/K/mol
214.46 K	220.3 J/K/mol
216.58 K	222.9 J/K/mol
217.18 K	223.7 J/K/mol
218.7 K	225.6 J/K/mol
219.55 K	226.6 J/K/mol
220.81 K	228.3 J/K/mol
221.81 K	229.5 J/K/mol
222.91 K	231 J/K/mol
224.05 K	232.4 J/K/mol
225.01 K	233.7 J/K/mol
226.29 K	235.3 J/K/mol
228.52 K	238.3 J/K/mol
230.75 K	241.1 J/K/mol
232.97 K	244 J/K/mol
235.18 K	246.9 J/K/mol
237.39 K	249.9 J/K/mol
239.59 K	252.9 J/K/mol
241.79 K	255.7 J/K/mol
243.98 K	258.7 J/K/mol
246.17 K	261.7 J/K/mol
248.35 K	264.6 J/K/mol
250.52 K	267.6 J/K/mol
252.71 K	270.6 J/K/mol
254.88 K	273.6 J/K/mol
257.04 K	276.7 J/K/mol
259.19 K	279.8 J/K/mol
261.34 K	282.9 J/K/mol
263.48 K	286 J/K/mol
265.62 K	289.2 J/K/mol
267.75 K	292 J/K/mol
269.87 K	295.1 J/K/mol
271.98 K	298.2 J/K/mol
274.09 K	301.2 J/K/mol
275.74 K	303.3 J/K/mol
276.2 K	304.1 J/K/mol
277.54 K	306 J/K/mol
278.29 K	307.1 J/K/mol
279.26 K	308.4 J/K/mol
280.39 K	310.1 J/K/mol
280.98 K	311 J/K/mol
282.47 K	313.1 J/K/mol
282.68 K	313.6 J/K/mol
284.38 K	316 J/K/mol
284.56 K	316 J/K/mol
286.08 K	318.6 J/K/mol
286.65 K	319.1 J/K/mol
287.78 K	321.1 J/K/mol
288.72 K	322.2 J/K/mol
289.47 K	323.6 J/K/mol
290.79 K	325 J/K/mol
291.16 K	325.9 J/K/mol
292.84 K	328 J/K/mol and 328.3 J/K/mol
294.52 K	330.7 J/K/mol
294.89 K	331.1 J/K/mol
296.19 K	333.2 J/K/mol
296.94 K	334 J/K/mol
297.87 K	335.4 J/K/mol
298.98 K	336.9 J/K/mol
299.54 K	338 J/K/mol
301.01 K	339.9 J/K/mol
301.2 K	340.6 J/K/mol
302.86 K	342.9 J/K/mol
303.04 K	342.7 J/K/mol
304.51 K	345.2 J/K/mol
305.05 K	345.7 J/K/mol
